Reference: patent US12129235B2, “TSPO binders” (The University Court of the University of Glasgow, priority 2018, dated 2024)
Like-named read-outs stand apart in the source and are kept apart here.

Key:
[1] = tested on: TSPO; assay: Competition binding assay against ^3H-PK11195 in human brain homogenate (HAB, MAB, LAB); conditions: for LAB:HAB affinity ratio: rs6971 polymorphism; for difference between HAB and LAB in individually calculated affinity values: unpaired t-test
Protocol: (§1) All studies using human tissue were conducted in accordance with the East of Scotland Research Ethics Service (Edinburgh Brain Bank, 11/ES/0022). […] To exclude sex dependent differences in TSPO binding (Fairweather et al.), only male samples were utilized in this study. Sample tissues were homogenized in 10× w/v buffer (50 mM Tris-Base, pH 7.4, 4° C.) before centrifugation (32,000 g, 10 min, 4° C.). Tissue pellets were then resuspended in 10× w/v buffer and centrifuged again before re-suspending them in buffer (2 mL). Samples were then assessed for protein concentration using the Bio-Rad protein assay (Bio-Rad, USA), aliquoted and stored at −80° C. until use.
(§2) Competition binding assays were carried out as previously reported (Blair et al. (Med. Chem. Commun.)). […] A concentration of 8 μM was used to determine non-specific binding for each ligand. Binding was terminated with the addition of 2 mL of ice cold buffer before being immediate filtered over a Whatman GF/B filters (Whatman, UK) pre-treated with 0.3% polyethylenimine (Sigma-Aldrich, USA) using a Brandel harvester (Brandel, USA). Filter paper was then removed, placed into 2.5 mL of Optiphase HiSafe 3 (Perkin Elmer, USA) and counted 48 hours later on a Hidex 300 SL (Hidex, Finland). […] All binding assays were performed in triplicate. GraphPad Prism version 6 (GraphPad Software, USA) was used to fit all binding affinity curves. A comparison of a one-site and two-site fitting was made using the least squares algorithm and model selection was compared using an F test. The null hypothesis (that one-site fitting as more suitable) was rejected if p<0.05. The mean % SB normalized to the minimum inhibition of each group (HAB, MAB or LAB) was used to determine whether a one-site or two-site fitting was appropriate, and to subsequently calculate LAB:HAB ratio. Affinity values (Ki) were calculated by fitting individual tissue samples based on the mean group fitting.

[2] = tested on: TSPO; assay: Competition binding assay against ^3H-PK11195 in human heart homogenate (HAB, MAB, LAB); conditions: for LAB:HAB ratio: rs6971 polymorphism; for difference between HAB and LAB in individually calculated affinity values: unpaired t-test
Protocol: as §1, §2

[3] = target: TSPO (Homo sapiens, UniProt P30536); assay: Competition binding assay against ^3H-PK11195 in human brain homogenate (HAB, MAB, LAB); design: other: human brain; other: human heart
TSPO (Homo sapiens, UniProt P30536), sequence (P30536 whole entry): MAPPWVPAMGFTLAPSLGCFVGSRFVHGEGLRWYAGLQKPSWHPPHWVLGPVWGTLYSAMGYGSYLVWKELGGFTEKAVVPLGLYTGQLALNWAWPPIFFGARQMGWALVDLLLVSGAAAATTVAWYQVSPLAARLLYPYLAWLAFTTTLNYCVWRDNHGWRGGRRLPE
Protocol: as §1
Competition binding assays were carried out as previously reported (Blair et al. (Med. Chem. Commun.)). […] A concentration of 8 μM was used to determine non-specific binding for each ligand. Binding was terminated with the addition of 2 mL of ice cold buffer before being immediate filtered over a Whatman GF/B filters (Whatman, UK) pre-treated with 0.3% polyethylenimine (Sigma-Aldrich, USA) using a Brandel harvester (Brandel, USA). Filter paper was then removed, placed into 2.5 mL of Optiphase HiSafe 3 (Perkin Elmer, USA) and counted 48 hours later on a Hidex 300 SL (Hidex, Finland). […] Affinity values (Ki) were calculated by fitting individual tissue samples based on the mean group fitting.

[4] = Pharmacokinetic/Pharmacodynamic study of PK11195 tissue exposure; format: in vivo; conditions: Sprague-Dawley, rat, rats, mean±SEM, n=3, read-out: exposure level
[5] = tested on: TSPO; conditions: literature (Ikawa et al.); cited from earlier work
[6] = tested on: TSPO; conditions: literature; cited from earlier work
[7] = in humans; literature; cited from earlier work

| LAB:HAB affinity ratio [1] | LAB:HAB ratio [2] | Compound | difference between HAB and LAB in individually calculated affinity values [1] | difference between HAB and LAB in individually calculated affinity values [2] | other results |
| --- | --- | --- | --- | --- | --- |
| 9 | 7 | CCN(CC)C(=O)c1nc2ccccc2c(-c2ccccc2)c1CF [AB5186] | significant difference | – | – |
| 1 | 1 | CC[C@@H](C)N(C)C(=O)c1nc2ccccc2c(-c2ccccc2)c1CF [LW223, (R)-(N-sec-Butyl)-3-fluoromethyl-N-methyl-4-phenylquinoline-2-carboxamide] | no significant difference | no significant difference | mean affinity relative to PK11195 [3]: 2 times; Ki ([3]; read-out: mean affinity (Ki)): 0.6 nM |
| – | – | CCC(C)N(C)C(=O)c1cc2ccccc2c(-c2ccccc2Cl)n1 (centres unmarked) [PK11195] | no significant difference | no significant difference | concentration at 1 h ([4]; brain): 11 ± 1.99 ng/mL; concentration at 1 h ([4]; heart): 29.3 ± 3.93 ng/mL; concentration at 1 h ([4]; lungs): 38.9 ± 2.24 ng/mL |
| – | – | CC[C@@H](C)N([11CH3])C(=O)c1nc(-c2ccccc2Cl)c2ccccc2n1 [^11C-ER176] | – | – | LAB:HAB ratio in vivo [5]: around 3; LAB:HAB ratio in vitro [6]: 1.3 |
| – | – | CCC(C)N(C)C(=O)c1cc2ccccc2c(-c2ccccc2Cl)n1 (centres unmarked) [^11C-PK11195] | – | – | plasma free fraction [7]: 1-6% |

| Compound | LAB:HAB affinity ratio [1] | LAB:HAB ratio [2] | difference between HAB and LAB in individually calculated affinity values [1] | difference between HAB and LAB in individually calculated affinity values [2] | other results |
| --- | --- | --- | --- | --- | --- |
| COc1ccccc1CN(C(C)=O)c1cnccc1Oc1ccccc1 [PBR28] | 49 | 48 | significant difference | – | – |
